Ten compounds from ChEMBL document CHEMBL1201862, “PubChem BioAssay data set” (2004) can be followed below.

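Cells were grown in 96-well plates and exposed to each compound for 48 hours at five concentrations; endpoints were interpolated linearly between bracketing concentrations, or set to the highest concentration if not reached. Abbreviation: GI50, concentration required for 50% inhibition of growth.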 The source made the active and inactive calls. Cut-off read from the data, not from the text of the source: active = GI50 up to about 1.1 µM and inactive = higher. Where only a bound is given, the exact number is not on record here.

Test systems include COLO 205; SF-539; MCF7; UACC-257; T47D; MDA-MB-231; SNB-75; A549; SNB-19; A498; MDA-MB-435; TK-10; DU-145; SF-295; U-251; NCI-H226; UO-31; HOP-92; SK-MEL-2; MOLT-4.
Assay in all cases: NCI-60 cell line screen, 48 h

Turning to `N=C(N)SCc1cccc2c(=O)cc(-c3ccccc3)oc12`, the GI50 was 3.78 µM (inactive) with COLO 205; 7.26 µM (inactive) in the assay with SF-539; 2.73 µM (inactive) in the assay on MCF7; 10.9 µM (inactive) in the assay with UACC-257; 3.75 µM (inactive) with T47D; 6.41 µM (inactive) in the assay with MDA-MB-231. For the same compound, the GI50 is 5.41 µM (inactive) with SNB-75; 7.62 µM (inactive) with A549; 23.9 µM (inactive) in the assay on SNB-19; 9.27 µM (inactive) with A498; 8.02 µM (inactive) in the assay on MDA-MB-435; 7.57 µM (inactive) in the assay on TK-10. Besides, the GI50 in the assay with DU-145 is 4.93 µM (inactive); in the assay on SF-295, 11.4 µM (inactive); in the assay with U-251, 7.66 µM (inactive); in the assay on NCI-H226 it was 15.9 µM (inactive); in the assay on UO-31, 2.84 µM (inactive); in the assay with HOP-92, 4.03 µM (inactive). The GI50 was 5.56 µM (inactive) with SK-MEL-2 and 2.68 µM (inactive) in the assay on MOLT-4.

For `CN(Cc1ccccc1)Cn1ccnc1`, the GI50 with COLO 205 is 33.5 µM (inactive); in the assay with SF-539, > 100 µM (inactive); with MCF7, 41 µM (inactive); with UACC-257, 22.4 µM (inactive); in the assay on T47D, > 60.7 µM (inactive); in the assay on MDA-MB-231, > 56 µM (inactive). Besides, the GI50 in the assay on SNB-75 was > 100 µM (inactive); in the assay with A549 it was > 100 µM (inactive); in the assay on SNB-19, > 100 µM (inactive); in the assay on A498, > 91.6 µM (inactive); in the assay with MDA-MB-435, 51.4 µM (inactive); with TK-10, > 100 µM (inactive). Moreover, the GI50 in the assay with DU-145 is > 100 µM (inactive); with SF-295, > 82.6 µM (inactive); in the assay with U-251 it was > 71 µM (inactive); in the assay on NCI-H226 it was > 100 µM (inactive); in the assay with UO-31 it was 54.7 µM (inactive); in the assay with HOP-92, 25.7 µM (inactive). Besides, the GI50 in the assay on SK-MEL-2 is > 100 µM (inactive); in the assay on MOLT-4, 46.5 µM (inactive).

For `COc1cc(C2c3cc4c(cc3CC3COC(=O)N32)OCO4)cc(OC)c1OC` (stereo not given), the GI50 in the assay with COLO 205 is 1.92 µM (inactive); with SF-539 it was 2.39 µM (inactive); in the assay on MCF7, 3.84 µM (inactive); with UACC-257, 26.1 µM (inactive); with T47D, > 100 µM (inactive); with MDA-MB-231, 3.71 µM (inactive). Besides, the GI50 is 14.8 µM (inactive) in the assay on SNB-75; 3.08 µM (inactive) in the assay on A549; 4.26 µM (inactive) with SNB-19; 6.31 µM (inactive) with A498; 0.404 µM (active) in the assay on MDA-MB-435; > 22.9 µM (inactive) in the assay on TK-10. Further, the GI50 is 5.33 µM (inactive) in the assay with DU-145; 0.729 µM (active) in the assay with SF-295; 3.79 µM (inactive) in the assay with U-251; 19.5 µM (inactive) in the assay on NCI-H226; 5.33 µM (inactive) in the assay with UO-31; 14.1 µM (inactive) in the assay on HOP-92. Further, the GI50 is 6.73 µM (inactive) with SK-MEL-2 and 3.67 µM (inactive) in the assay with MOLT-4.

On to `CCCCCCc1cc2cc(-c3cn4ccccc4n3)c(=O)oc2cc1O`, for which the GI50 is > 100 µM (inactive) in the assay on COLO 205; 2.76 µM (inactive) in the assay on SF-539; 5.43 µM (inactive) in the assay on MCF7; 18.1 µM (inactive) in the assay on UACC-257; 19.2 µM (inactive) with T47D; 3.27 µM (inactive) with MDA-MB-231. Besides, the GI50 is 3.14 µM (inactive) in the assay with SNB-75; 16.5 µM (inactive) in the assay on A549; 13.2 µM (inactive) in the assay on SNB-19; 20.1 µM (inactive) with A498; 5.24 µM (inactive) in the assay with MDA-MB-435; 15.5 µM (inactive) with TK-10. Further, the GI50 was 5.11 µM (inactive) in the assay on DU-145; 15.1 µM (inactive) with SF-295; 3.56 µM (inactive) in the assay with U-251; 19.1 µM (inactive) in the assay on NCI-H226; 8.39 µM (inactive) in the assay on UO-31; 15.5 µM (inactive) with HOP-92. The GI50 is 13.6 µM (inactive) in the assay on SK-MEL-2 and 7.91 µM (inactive) in the assay on MOLT-4.

For `O=C(/C=C1\C[C@H]2C=Nc3ccccc3C(=O)N2C1)NCCCCNC(=O)/C=C1\C[C@H]2C=Nc3ccccc3C(=O)N2C1`, the GI50 in the assay on COLO 205 is 4.21 µM (inactive); with SF-539, 14.9 µM (inactive); with MCF7, 12.4 µM (inactive); in the assay on UACC-257, 10.3 µM (inactive); in the assay with T47D it was 4.39 µM (inactive); in the assay on MDA-MB-231, 0.494 µM (active). The GI50 in the assay with SNB-75 was 16.3 µM (inactive); in the assay with A549, 20.7 µM (inactive); with SNB-19, 16.6 µM (inactive); in the assay with A498, 18.7 µM (inactive); with MDA-MB-435 it was 7.4 µM (inactive); in the assay with TK-10, 10.4 µM (inactive). For the same compound, the GI50 was 15.2 µM (inactive) with DU-145; 19.5 µM (inactive) with SF-295; 3.37 µM (inactive) with U-251; 13.8 µM (inactive) with NCI-H226; 2.39 µM (inactive) in the assay on UO-31; 7.93 µM (inactive) with HOP-92. For the same compound, the figures for the GI50 in the assay on SK-MEL-2 and in the assay with MOLT-4 were 15.2 µM (inactive) and 2.91 µM (inactive), respectively.

On to `C(/Cc1ccc2c(c1)OCO2)=N\N=C1NCCN1`, for which the GI50 with COLO 205 is > 100 µM (inactive); in the assay on SF-539 it was 79.3 µM (inactive); in the assay on MCF7, > 100 µM (inactive); in the assay on UACC-257, > 100 µM (inactive); in the assay on T47D, 90.6 µM (inactive); in the assay with MDA-MB-231, > 100 µM (inactive). Further, the GI50 in the assay on SNB-75 was 33.7 µM (inactive); in the assay on A549, 73.8 µM (inactive); in the assay with SNB-19 it was > 100 µM (inactive); in the assay on A498, 18.8 µM (inactive); with MDA-MB-435, > 100 µM (inactive); in the assay with TK-10 it was 61.7 µM (inactive). Besides, the GI50 was > 100 µM (inactive) in the assay on DU-145; 42.4 µM (inactive) in the assay on SF-295; > 100 µM (inactive) in the assay with U-251; 33.2 µM (inactive) in the assay with NCI-H226; 42.1 µM (inactive) in the assay with UO-31; 34.8 µM (inactive) with HOP-92. Further, the GI50 in the assay with SK-MEL-2 is > 100 µM (inactive); in the assay on MOLT-4, 52.6 µM (inactive).

As to `C=CC1(CBr)CCC(C(C)(C)Br)O1` (stereo not given), the GI50 was 5.43 µM (inactive) in the assay on COLO 205; 16.9 µM (inactive) in the assay on SF-539; 15.6 µM (inactive) in the assay with MCF7; 13.7 µM (inactive) in the assay with UACC-257; 2.28 µM (inactive) in the assay with T47D; 13.2 µM (inactive) in the assay with MDA-MB-231. In addition, the GI50 in the assay with SNB-75 was 5.65 µM (inactive); in the assay on A549 it was 17.3 µM (inactive); in the assay with SNB-19, 15.8 µM (inactive); in the assay on A498, 19.1 µM (inactive); in the assay on MDA-MB-435, 12.6 µM (inactive); in the assay with TK-10, 15.1 µM (inactive). Also, the GI50 in the assay on DU-145 is 10 µM (inactive); in the assay with SF-295, 12.3 µM (inactive); in the assay on U-251, 6.27 µM (inactive); in the assay on NCI-H226 it was 21 µM (inactive); with UO-31, 12.7 µM (inactive); in the assay on HOP-92, 14.9 µM (inactive). The GI50 with SK-MEL-2 was 12.8 µM (inactive); in the assay with MOLT-4, 2.21 µM (inactive).

For `COc1c(-c2nc3ccc(N4CCN(C)CC4)cc3[nH]2)cc(OC)c2[nH]c(CO)nc12`, the GI50 was 82.4 µM (inactive) in the assay with COLO 205; > 100 µM (inactive) in the assay with SF-539; 54.3 µM (inactive) in the assay on MCF7; > 100 µM (inactive) with UACC-257; > 100 µM (inactive) with T47D; 74 µM (inactive) in the assay on MDA-MB-231. The GI50 was 48.3 µM (inactive) in the assay with SNB-75; > 100 µM (inactive) in the assay on A549; 44.4 µM (inactive) in the assay on SNB-19; > 100 µM (inactive) in the assay on A498; 69.5 µM (inactive) in the assay on MDA-MB-435; > 100 µM (inactive) in the assay with TK-10. The GI50 is 84.5 µM (inactive) in the assay on DU-145; > 100 µM (inactive) with SF-295; 74.8 µM (inactive) in the assay on U-251; > 100 µM (inactive) in the assay with NCI-H226; > 100 µM (inactive) in the assay on UO-31; > 100 µM (inactive) with HOP-92. For the same compound, the GI50 in the assay with SK-MEL-2 and in the assay with MOLT-4 was > 100 µM (inactive) throughout.

In the case of `O=C1C(Cl)=C(NCCO)C(=O)c2c(O)ccc(O)c21`, the GI50 in the assay on COLO 205 was 1.74 µM (inactive); with SF-539, 2.52 µM (inactive); with MCF7, 1.93 µM (inactive); with UACC-257, 1.33 µM (inactive); with T47D it was 4.24 µM (inactive); in the assay on MDA-MB-231, 1.95 µM (inactive). Further, the GI50 is 4.38 µM (inactive) in the assay with SNB-75; 1.87 µM (inactive) in the assay on A549; 5.33 µM (inactive) in the assay with SNB-19; 1.36 µM (inactive) with A498; 2.17 µM (inactive) with MDA-MB-435; > 10 µM (inactive) in the assay on TK-10. In addition, the GI50 with DU-145 was 2.36 µM (inactive); in the assay on SF-295 it was 1.95 µM (inactive); with U-251, 6.27 µM (inactive); in the assay on NCI-H226, > 10 µM (inactive); with UO-31, 6.7 µM (inactive); with HOP-92, > 10 µM (inactive). Also, the GI50 is 3.02 µM (inactive) in the assay on SK-MEL-2 and 3.33 µM (inactive) in the assay on MOLT-4.

Turning to `Cc1ccc(/N=N/c2c(O)ccc3cc(S(=O)(=O)O)cc(S(=O)(=O)O)c23)cc1`, the GI50 in the assay on COLO 205, in the assay on SF-539, with MCF7, in the assay on UACC-257, with T47D and in the assay with MDA-MB-231 was > 100 µM (inactive) in each case. For the same compound, the GI50 in the assay on SNB-75, in the assay on A549, in the assay on SNB-19, with A498, in the assay on MDA-MB-435 and in the assay on TK-10 was > 100 µM (inactive) each time. Further, the GI50 in the assay on DU-145, in the assay with SF-295, in the assay on U-251, in the assay with NCI-H226, in the assay on UO-31 and in the assay with HOP-92 was > 100 µM (inactive) in each case. In addition, the GI50 in the assay with SK-MEL-2 and in the assay with MOLT-4 was > 100 µM (inactive) in each case.
